Results: US20250154169A1, “COMPOUNDS AND METHODS FOR MODULATING SPLICING” (REMIX THERAPEUTICS INC., priority 2021, published 2025)
Like-named read-outs stand apart in the source and are kept apart here.

Tests used:
Format in all cases: cell-based, human
HTT mRNA [1] = test: Splicing RT-qPCR assay, HTT canonical (CJ) and alternative (AJ) junction mRNA
In short: (§1)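 One-step RT-qPCR on cell lysates, CJ and AJ isoforms quantified; housekeeping normalization GAPDH/GUSB (K562) or PPIA (A673). Cells: A673 in DMEM/10% FBS or K562 in IMDM/10% FBS. Compounds 11-pt 3-fold, top 10 uM, 24 h, 37 °C, 5% CO2.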

MYB mRNA = test: Splicing RT-qPCR assay, MYB canonical (CJ) and alternative (AJ) junction mRNA
In short: as §1

SMN2 mRNA = test: Splicing RT-qPCR gene panel, SMN2 canonical junction (CJ) mRNA; conditions: Tables 4A/4B, read-out: SMN2 (IC50, decrease in CJ mRNA, gene panel)
In short: (§2)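 First, A673 cells adhered 24 h before dosing, while K562 cells were plated and dosed directly. Both lines were then exposed to compound for 24 h at 37 °C, 5% CO2, top concentration 10 uM. Finally, lysates underwent RT-qPCR of the canonical junction, with ΔΔCt-based relative quantification.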

Target C mRNA = test: Splicing RT-qPCR gene panel, Target C canonical junction (CJ) mRNA; conditions: Tables 4A/4B, read-out: Target C (IC50, decrease in CJ mRNA, gene panel)
In short: as §2

HTT mRNA [2] = test: Splicing RT-qPCR gene panel, HTT canonical junction (CJ) mRNA; conditions: Tables 4A/4B, read-out: HTT (IC50, decrease in CJ mRNA, gene panel)
In short: as §2

[3] = Homo sapiens, 24 h, A673 or K562 cells, 24 hours compound treatment, read-out: HTT CJ (IC50, decrease in canonical junction mRNA)
[4] = Homo sapiens, A673 or K562 cells, 24 hours compound treatment, read-out: HTT AJ (AC50, increase in alternative junction mRNA)
[5] = Homo sapiens, 24 h, A673 or K562 cells, 24 hours compound treatment, RT-qPCR, read-out: MYB AJ (AC50, increase in alternative junction mRNA)
[6] = Homo sapiens, 24 h, A673 or K562 cells, 24 hours compound treatment, RT-qPCR, read-out: MYB CJ (IC50, decrease in canonical junction mRNA)
[7] = Homo sapiens, Tables 4A/4B, canonical junction qPCR panel, read-out: MYB (IC50, decrease in CJ mRNA, gene panel)
[8] = Homo sapiens, Table 3B, alternative junction mRNA, read-out: HTT AJ (AC50, increase in AJ mRNA)
[9] = Homo sapiens, Table 3B, canonical junction mRNA, read-out: HTT CJ (IC50, decrease in CJ mRNA)
[10] = Homo sapiens, Table 3B, canonical junction mRNA, RT-qPCR, read-out: MYB CJ (IC50, decrease in CJ mRNA)
[11] = Homo sapiens, Table 3B, alternative junction mRNA, RT-qPCR, read-out: MYB AJ (AC50, increase in AJ mRNA)

Row | IC50 (HTT mRNA [1]; [3]) [nM] | IC50 (MYB mRNA; [6]) [nM] | IC50 (MYB mRNA; [7]) [nM] | IC50 (SMN2 mRNA; Homo sapiens) [nM] | IC50 (Target C mRNA; Homo sapiens) [nM] | IC50 (HTT mRNA [2]; Homo sapiens) [nM] | IC50 (HTT mRNA [1]; [9]) [nM] | IC50 (MYB mRNA; [10]) [nM] | IC50 (HTT mRNA [1]; Table 3B, canonical junction mRNA, read-out: HTT CJ (IC50, decrease in CJ mRNA)) [nM] | IC50 (MYB mRNA; Table 3B, canonical junction mRNA, RT-qPCR, read-out: MYB CJ (IC50, decrease in CJ mRNA)) [nM] | IC50 (MYB mRNA; Tables 4A/4B, canonical junction qPCR panel, read-out: MYB (IC50, decrease in CJ mRNA, gene panel)) [nM] | IC50 (SMN2 mRNA) [nM] | IC50 (Target C mRNA) [nM] | IC50 (HTT mRNA [2]) [nM] | SMILES | AC50 (HTT mRNA [1]; [4]) [nM] | AC50 (MYB mRNA; [5]) [nM] | AC50 (HTT mRNA [1]; [8]) [nM] | AC50 (MYB mRNA; [11]) [nM] | AC50 (HTT mRNA [1]; Table 3B, alternative junction mRNA, read-out: HTT AJ (AC50, increase in AJ mRNA)) [nM] | AC50 (MYB mRNA; Table 3B, alternative junction mRNA, RT-qPCR, read-out: MYB AJ (AC50, increase in AJ mRNA)) [nM]
1 | 100 to 1000 | < 100 | < 100 | < 100 | 1000 to 10000 | 100 to 1000 | – | – | – | – | – | – | – | – | CCn1cc2c(N3C[C@@H](C)N[C@@H](C)C3)cc(F)c(C(=O)Nc3cc(F)c4nc(C)cn4c3)c2n1 [Compound 475, 4-[(3R,5S)-3,5-dimethylpiperazin-1-yl]-2-ethyl-6-fluoro-N-{8-fluoro-2-methylimidazo[1,2-a]pyridin-6-yl}indazole-7-carboxamide; trifluoroacetic acid] | 100 to 1000 | < 100 | – | – | – | –
2 | 100 to 1000 | 1000 to 10000 | 1000 to 10000 | 100 to 1000 | 1000 to 10000 | 100 to 1000 | – | – | – | – | – | – | – | – | CCn1cc2c(NC3CCNCC3)ccc(C(=O)Nc3cc(F)c4nc(C)cn4c3)c2n1 [Compound 476, 2-ethyl-N-{8-fluoro-2-methylimidazo[1,2-a]pyridin-6-yl}-4-(piperidin-4-ylamino) indazole-7-carboxamide] | 1000 to 10000 | 1000 to 10000 | – | – | – | –
3 | 1000 to 10000 | 100 to 1000 | 100 to 1000 | 100 to 1000 | > 10000 | 1000 to 10000 | – | – | – | – | – | – | – | – | CCn1cc2c(N3CC4(CNC4)C3)ccc(C(=O)Nc3cc(F)c4nc(C)cn4c3)c2n1 [Compound 477, 4-{2,6-diazaspiro[3.3]heptan-2-yl}-2-ethyl-N-{8-fluoro-2-methylimidazo[1,2-a]pyridin-6-yl}indazole-7-carboxamide] | > 10000 | 100 to 1000 | – | – | – | –
4 | – | – | < 100 | < 100 | 1000 to 10000 | 100 to 1000 | 100 to 1000 | < 100 | – | – | – | – | – | – | Cc1cn2cc(NC(=O)c3ccc(N4CCNCC4)n4cc(C)nc34)cc(F)c2n1 [Compound 908] | – | – | 100 to 1000 | < 100 | – | –
5 | – | – | – | – | – | – | – | – | 100 to 1000 | < 100 | < 100 | < 100 | 100 to 1000 | 100 to 1000 | CCc1cc2c(N3CCNCC3)ccc(C(=O)Nc3cc(F)c4nc(C)cn4c3)n2n1 [Compound 916] | – | – | – | – | 100 to 1000 | < 100
6 | – | – | 1000 to 10000 | 100 to 1000 | > 10000 | > 10000 | > 10000 | 1000 to 10000 | – | – | – | – | – | – | Cc1cn2cc(NC(=O)c3ncc(N4CCNCC4)c4cn(C)nc34)cc(F)c2n1 [Compound 932] | – | – | > 10000 | 1000 to 10000 | – | –
7 | – | – | < 100 | < 100 | 100 to 1000 | < 100 | < 100 | < 100 | – | – | – | – | – | – | Cc1cn2cc(NC(=O)c3ccc(N4CCNCC4)c4cc(C)nn34)cc(F)c2n1 [Compound 940] | – | – | 100 to 1000 | < 100 | – | –
8 | – | – | < 100 | < 100 | 1000 to 10000 | 100 to 1000 | 100 to 1000 | < 100 | – | – | – | – | – | – | Cc1cn2cc(NC(=O)c3ccc(N4CCNCC4)c4csnc34)cc(F)c2n1 [Compound 941] | – | – | 100 to 1000 | < 100 | – | –
9 | – | – | 100 to 1000 | < 100 | 1000 to 10000 | 100 to 1000 | 100 to 1000 | 100 to 1000 | – | – | – | – | – | – | CCNC1CCN(c2ccc(C(=O)Nc3cc(F)c4nc(C)cn4c3)c3nc(CC)cn23)C1 (stereo not drawn) [Compound 942] | – | – | 1000 to 10000 | 100 to 1000 | – | –
10 | – | – | < 100 | < 100 | 1000 to 10000 | 100 to 1000 | 100 to 1000 | < 100 | – | – | – | – | – | – | CCc1cn2c(N3CCNCC3)ccc(C(=O)Nc3cc(F)c4nc(C)cn4c3)c2n1 [Compound 943] | – | – | 1000 to 10000 | < 100 | – | –
11 | – | – | 100 to 1000 | < 100 | 1000 to 10000 | 1000 to 10000 | 1000 to 10000 | 100 to 1000 | – | – | – | – | – | – | CCNC1CCN(c2ccc(C(=O)Nc3cc(F)c4nc(C)cn4c3)c3nc(CC)sc23)C1 (stereo not drawn) [Compound 944] | – | – | 1000 to 10000 | 100 to 1000 | – | –
12 | – | – | < 100 | < 100 | 1000 to 10000 | 1000 to 10000 | 1000 to 10000 | < 100 | – | – | – | – | – | – | CCc1nc2c(C(=O)Nc3cc(F)c4nc(C)cn4c3)ccc(N3CCNCC3)c2s1 [Compound 945] | – | – | 1000 to 10000 | < 100 | – | –
